Measurements: paper PMC9511441, “Semisynthetic teicoplanin derivatives with dual antimicrobial activity against SARS-CoV-2 and multiresistant bacteria” (Scientific Reports, 2022)
In brackets after ≈: the same amount, converted by molar mass. Read-outs that look alike come from different tables or passages of the source.

Columns and labels:
Assay type in all cases: cell-based
SARS-CoV-2 pseudovirus [1] = experiment: microbe, parasite or virus in culture; settings: Vero cells, luciferase signal, mean ± SEM of 3 tests; read-out: EC50, inhibition of SARS-CoV-2 pseudovirus entry in Vero cells
SARS-CoV-2 pseudovirus [2] = experiment: microbe, parasite or virus in culture; settings: A549-AT cells (ACE2 and TMPRSS2), luciferase signal, mean ± SEM of 3 tests; read-out: EC50, inhibition of SARS-CoV-2 pseudovirus entry in A549-AT cells
E. faecalis = experiment: MIC, broth microdilution
From the text: (§1) We determined the minimal inhibitory concentrations (MIC) of the teicoplanin conjugates for a large panel of Gram-positive bacterial strains, using vancomycin, unmodified teicoplanin, dalbavancin and oritavancin as reference compounds. […] The bacterial strains (see Suppl. Table S5 for all details) were selected to achieve maximum diversity of multidrug-resistance and include strains with known mechanisms of resistance to glycopeptides in clinical use. The S. epidermidis and S. haemolyticus strains resistant to dalbavancin and oritavancin were obtained in vitro from clinical isolates sensitive to the glycopeptide antibiotics.

S. aureus = experiment: MIC, broth microdilution
From the text: as §1

S. haemolyticus = experiment: MIC, broth microdilution
From the text: as §1

S.pyogenes = experiment: MIC, broth microdilution
From the text: as §1

E. faecium = experiment: microbe, parasite or virus in culture
From the text: as §1

S. epidermidis = experiment: microbe, parasite or virus in culture
From the text: as §1

CCOC(=O)[C@H]1O[C@@H]1C(=O)N[C@@H](CC(C)C)C(=O)NCCC(C)C [Compound E64d, reference compound]
EC50 (SARS-CoV-2 pseudovirus [1]): 1300 ± 1200 nM
EC50 (SARS-CoV-2 pseudovirus [2]): > 20000 nM

CN[C@H]1C(=O)N[C@@H]2Cc3ccc(cc3)Oc3cc4cc(c3O[C@@H]3O[C@H](C(=O)O)[C@@H](O)[C@H](O)[C@H]3NC(=O)CCCCCCCCC(C)C)Oc3ccc(cc3Cl)[C@@H](O)[C@@H]3NC(=O)[C@H](NC(=O)[C@@H]4NC(=O)[C@@H](NC2=O)c2cc(cc(O)c2Cl)Oc2cc1ccc2O)c1ccc(O)c(c1)-c1c(O[C@H]2O[C@H](CO)[C@@H](O)[C@H](O)[C@@H]2O)cc(O)cc1[C@@H](C(=O)NCCCN(C)C)NC3=O [DALB, dalbavancin, reference compound]
Average MIC value (E. faecalis; E. faecalis VAN^R,TEI^R/VanA, 1 strain): 64 µg/mL
Average MIC value (E. faecalis; E. faecalis VAN^S, TEI^S, 2 strains): 0.25 µg/mL
MIC value (E. faecalis; E.faecalis JH2-2): 0,25 µg/ml
MIC value (E. faecalis; E.faecalis OG1RF): 0,25 µg/ml
MIC value (E. faecalis; E.faecalis V583, VAN,TEI/VanA): 64 µg/mL (≈ 35.2 µM)
MIC value (S. aureus; S. aureus 73OL, MRSA): 0,125 µg/ml
MIC value (S. aureus; S. aureus 214OL, MRSA): 0,125 µg/ml
MIC value (S. aureus; S. aureus 1041OL, MRSA): 0,03125 µg/ml
MIC value (S. aureus; S. aureus A6918, MRSA): 0,125 µg/ml
MIC value (S. aureus; S. aureus A6919, MRSA): 0,0625 µg/ml
MIC value (S. aureus; S. aureus ATCC29213, MSSA): 0,125 µg/ml
Average MIC value (S. aureus; S. aureus CA-MRSA, 1 strain): 0.0625 µg/mL
Average MIC value (S. aureus; S. aureus MRSA, 7 strains): 0.1 µg/mL
MIC value (S. aureus; S. aureus MSSA476, MSSA): 0,125 µg/ml
Average MIC value (S. aureus; S. aureus MSSA, 4 strains): 0.125 µg/mL
MIC value (S. aureus; S. aureus Mu50, MRSA): 0,125 µg/ml
MIC value (S. aureus; S. aureus N315, MRSA): 0,125 µg/ml
MIC value (S. aureus; S. aureus Newman, MSSA): 0,125 µg/ml
MIC value (S. aureus; S. aureus SA564, MSSA): 0,125 µg/ml
MIC value (S. aureus; S. aureus USA300, CA-MRSA): 0,0625 µg/ml
Average MIC value (S. haemolyticus; S. haemolyticus mecA, 6 strains): 3.83 µg/mL
MIC value (S. haemolyticus; S.haemolyticus DALB_R1, mecA): 2 µg/mL (≈ 1.1 µM)
MIC value (S. haemolyticus; S.haemolyticus DALB_R2, mecA): 8 µg/mL (≈ 4.4 µM)
MIC value (S. haemolyticus; S.haemolyticus DALB_R3, mecA): 2 µg/mL (≈ 1.1 µM)
MIC value (S. haemolyticus; S.haemolyticus DALB_R4, mecA): 2 µg/mL (≈ 1.1 µM)
MIC value (S. haemolyticus; S.haemolyticus DALB_R5, mecA): 1 µg/mL (≈ 0.55 µM)
MIC value (S. haemolyticus; S.haemolyticus ORI_R1, mecA): 8 µg/mL (≈ 4.4 µM)
MIC value (S.pyogenes; S.pyogenes H232): 0,0625 µg/ml
MIC value (S.pyogenes; S.pyogenes H550): 0,25 µg/ml
MIC value (S.pyogenes; S.pyogenes H578): 0,25 µg/ml
Average MIC value (E. faecium; E. faecium VAN^R,TEI^R/VanA, 8 strains): 48 µg/mL
Average MIC value (E. faecium; E. faecium VAN^S, TEI^S, 1 strain): 0.25 µg/mL
MIC value (E. faecium; E.faecium E335, VAN,TEI,LNZ/VanA): 64 µg/mL (≈ 35.2 µM)
MIC value (E. faecium; E.faecium E355, VAN,TEI,LNZ/VanA): 32 µg/mL (≈ 17.6 µM)
MIC value (E. faecium; E.faecium E832, VAN,TEI,LNZ/VanA): 64 µg/mL (≈ 35.2 µM)
MIC value (E. faecium; E.faecium E854, VAN,TEI,LNZ/VanA): 32 µg/mL (≈ 17.6 µM)
MIC value (E. faecium; E.faecium E859, VAN,TEI,LNZ/VanA): 32 µg/mL (≈ 17.6 µM)
MIC value (E. faecium; E.faecium E1114, VAN,TEI,LNZ/VanA): 64 µg/mL (≈ 35.2 µM)
MIC value (E. faecium; E.faecium E1131, VAN,TEI,LNZ/VanA): 64 µg/mL (≈ 35.2 µM)
MIC value (E. faecium; E.faecium E1132, VAN,TEI,LNZ/VanA): 32 µg/mL (≈ 17.6 µM)
MIC value (E. faecium; E.faecium TX0016): 0,25 µg/ml
Average MIC value (S. epidermidis; S. epidermidis mecA, 6 strains): 1.77 µg/mL
MIC value (S. epidermidis; S.epidermidis ORI_R1, mecA): 4 µg/mL (≈ 2.2 µM)
MIC value (S. epidermidis; S.epidermidis ORI_R2, mecA): 4 µg/mL (≈ 2.2 µM)
MIC value (S. epidermidis; S.epidermidis ORI_R3, mecA): 2 µg/mL (≈ 1.1 µM)
MIC value (S. epidermidis; S.epidermidis ORI_R4, mecA): 0,25 µg/ml
MIC value (S. epidermidis; S.epidermidis TEI_R1, mecA): 0,25 µg/ml
MIC value (S. epidermidis; S.epidermidis TEI_R2, mecA): 0,125 µg/ml
